Results reported in patent US20040038424A1, “Formaldehyde-ammonium salt complexes for the stabilization of blood cells” (priority 2002, published 2004).

Legend:
[1] = system: platelet granule marker CD62p on platelets; experiment: Percentage of CD62p positive platelets by flow cytometry (platelet activation state); format: cell-based, human; details: dibasic versus tribasic ammonium citrate in the reagent, FIGS. 11A and 11B
Source text: When used to stabilize blood samples or fractions or other tissues containing platelets, the composition and methods of this invention preserve platelet activity in the state of activation substantially the same as that existing at the time of blood or platelet withdrawal from the blood or platelet donor. By “state of activation of the platelets” or “Activation Potential” as used herein is meant the percentage of platelets expressing the CD62p antigen, i.e., the percentage of platelets that bind CD62p fluorescently-labeled antibody as performed by flow cytometry, or CD62p positive platelets in the sample. The CD62p antigen represents a glycoprotein antigen that is unique to megakaryocyte, platelet, and endothelial cell secretory granules. […]
Expression of CD62p is measured typically by flow cytometric analysis using dual or multi-parameter analyses, and particularly by staining the samples with labeled ligands that bind to CD62p on the platelets in the sample. The ligands are conventionally monoclonal antibodies to the antigen to be measured. […]
The same protocol was conducted on activated blood samples. […] PAP was assessed using 2 μl of a 1/100 dilution (0.0324 mM) of stock PMA is added with 10 μl antibodies and 100 μl of diluent (PBS) and 2.5 μl of blood and incubated for 15 minutes (final concentration of 11.58 μM). […]

cells = experiment: Cellular stabilization (several experiments); format: cell-based

Row | Structure (SMILES) | stabilization of CD62p by ammonium salt type [1] | effectiveness in cellular stabilization (cells)
1 | N.N.O=C(O)CC(O)(CC(=O)O)C(=O)O [dibasic ammonium citrate] | better stabilization | 
2 | C1N2CN3CN1CN(C2)C3 [hexamethylenetetramine] |  | not effective
